Counter-ions that a name gives are not always drawn. Like-named read-outs stand apart in the source and are kept apart here.
Key:
[1] = system: rabbit reticulocytes (RR); test: Cell-free transcription-translation inhibition in rabbit reticulocytes; assay type: biochemical; details: inhibition of translation in rabbit reticulocyte lysate, luciferase reporter, 90 min at 30 °C
Method: (§1) Cytosolic ribosome susceptibility and selectivity were assessed through three different cell-free transcription-translation assays: (1) An extract of E. coli (S30, Promega, Madison, WI, USA), (2) in rabbit reticulocytes (Promega), and (3) in L. tarentolae lysate (Jena Bioscience, Jena, Germany). Three plasmids, compatible with each extract system, were used in this study: pBESTlucTM (Promega) for the prokaryotic translation assay, Luciferase T7 DNA (Promega) for the reticulocytes, and pLEXSY-invitro2-EGFP (Jena Bioscience) for Leishmania. Firefly luciferase was used as a reporter gene for the bacterial and reticulocyte systems, and EGFP for Leishmania. […] Assays were performed in white polystyrene 96-well flat-bottom plates (Nunc, Roskilde, Denmark) for luciferase and black polystyrene 384-well flat-bottom plates (Greiner, Kremsmunster, Austria) for EGFP. Incubation times were 60 min at 37 °C, 90 min at 30 °C, and 120 min at 26 °C for the bacterial, reticulocyte, and Leishmania systems, respectively. Reactions were stopped by quick snap cooling followed by a 5 min incubation on ice. Luciferase activity was measured for each well following the addition of 50 μL of Luciferase Assay reagent (Promega, Madison, WI, USA) with an automatic reagent injector (Tecan, Mannedorf, Switzerland) by recording the chemical-luminescence signal. EGFP fluorescence (λex = 488 nm; λem = 507 nm) was recorded on a Tecan Infinite R®F200 microplate reader (Tecan). Extracts lacking the circular DNA template were used as a negative control to calculate the fluorescence/chemical luminescence background. Reaction mixtures without compounds were used as positive controls and were regarded as 100% translation. Paromomycin was used as a control reagent in all assays. At least six different concentrations were used to plot each translation inhibition curve; experiments were performed in three independent repeats in duplicate. Half maximal inhibition concentrations (IC50) values were calculated from the concentration-response fitting curves using GraFit7.0.3 software.

L. tarentolae lysate = test: Cell-free transcription-translation inhibition in L. tarentolae lysate; assay type: biochemical; details: for IC50: inhibition of translation in active cell lysate, EGFP reporter, 120 min at 26 °C
Method: as §1

extract of E. coli (S30) = test: Cell-free transcription-translation inhibition in E. coli S30 extract; assay type: biochemical; details: for IC50: inhibition of translation in active cell lysate, luciferase reporter, 60 min at 37 °C; for effect on E. coli (in words): translation assay
Method: as §1

[2] = system: Leishmania infantum (MHOM/MA/67/ITMAP-263) resistant to 1 µM amphotericin B; test: Anti-leishmanial activity on promastigotes, amphotericin B-resistant L. infantum; assay type: cell-based; details: 72 h
Method: (§2) The L. infantum (MHOM/MA/67/ITMAP-263) wild-type strain (WT), as well as the resistant mutants Sb2000.1, AmB1000.1, and MF200.5 [29, 30, 31, 32, 33], which are respectively resistant to antimony (Sb^III), amphotericin B (AmB), and miltefosine (MF), were grown in M199 medium at 25 °C supplemented with 10% fetal bovine serum, 5 μg/mL of haemin at pH 7.0, 2000 μM Sb (Potassium antimonyl tartrate trihydrate, Sigma-Aldrich, Saint Louis, MO, USA), 200 μM of MF (Miltefosine, Cayman Chem, Ann Arbor, MI, USA) or 1 μM AmB (Amphotericin B solution, Sigma-Aldrich, Saint Louis, MO, USA). Leishmanicidal values were determined in Leishmania promastigotes by monitoring the replication of parasites after 72 h of incubation at 25 °C in the presence of increasing concentrations of the different compounds by measuring A600 using a Cytation 5 machine (BioTek-Agilent, Santa Clara, CA 9, USA). EC50 values were calculated based on dose–response curves analyzed by non-linear regression with GraphPad Prism 10.0 software (GraphPad Software, La Jolla, CA, USA). An average of at least three independent biological replicates were performed for each determination.

[3] = system: Leishmania infantum (MHOM/MA/67/ITMAP-263) resistant to 2 mM trivalent (and pentavalent) antimonials; test: Anti-leishmanial activity on promastigotes, antimony-resistant L. infantum; assay type: cell-based; details: 72 h
Method: as §2

[4] = system: Leishmania infantum (MHOM/MA/67/ITMAP-263) wild-type strain; test: Anti-leishmanial activity on promastigotes, L. infantum WT; assay type: cell-based; details: 72 h, 25 °C
Method: as §2

[5] = system: Leishmania major Friedlin; test: Anti-leishmanial activity on promastigotes, L. major Friedlin; assay type: cell-based; details: 72 h, 25 °C
[6] = system: Leishmania infantum (MHOM/MA/67/ITMAP-263) resistant to 200 µM miltefosine; test: Anti-leishmanial activity on promastigotes, miltefosine-resistant L. infantum; assay type: cell-based; details: 72 h
Method: as §2

[7] = system: L. infantum WT amastigotes in BMDM; test: Drug susceptibility of intracellular amastigotes in infected BMDM, L. infantum; assay type: cell-based; details: Leishmania infantum; infected BMDM macrophages, 48 h; read-out: EC50 against amastigotes of L. infantum
Method: (§3) The effect of isopropyl ether 22a on the amastigote intracellular form of Leishmania was determined by the measurement of EC50 values in cells, as previously described. Briefly, 2.5 × 10^5 bone-marrow-derived macrophages (BMDMs) were plated into the wells of 12-well chamber slides (Ibidi) with complete DMEM medium. A culture of L. infantum or L. major WT promastigotes in stationary phase in a ratio of 1:5 BMDM to parasites was used to infect cells. Infection was carried out for 3 h at 37 °C in DMEM medium with 5% CO2 without drug. After 24 h, increasing concentrations of ether 22a were added to the medium containing the infected macrophages. After 48 h, the slides were fixed in methanol and stained with Diff-Quick solution to facilitate parasite visualization. The number of infecting amastigotes per 100 cells was determined by examining 300 macrophages per triplicate assay and normalized to the untreated control. EC50 values in the amastigote form were calculated based on dose–response curves that were analyzed by non-linear regression using the GraphPad Prism 9.0 software. An average of three independent biological replicates was used to perform the analyses.

[8] = system: L. major WT amastigotes in BMDM; test: Drug susceptibility of intracellular amastigotes in infected BMDM, L. major; assay type: cell-based; details: Leishmania major; infected BMDM macrophages, 48 h; read-out: EC50 against amastigotes of L. major
Method: as §3

host macrophage (BMDM) = test: Host macrophage toxicity, MTT survival assay; assay type: cell-based
[9] = Leishmania infantum, read-out: IC50 (μM) Ldi AmB-Res
[10] = Leishmania infantum, read-out: IC50 (μM) Ldi Sb-Res
[11] = Leishmania infantum, read-out: IC50 (μM) Ldi WT
[12] = Leishmania major, read-out: IC50 (μM) LmF WT
[13] = Leishmania infantum, read-out: IC50 (μM) Ldi MF-Res

Compound	IC50 [1]	IC50 (L. tarentolae lysate)	IC50 (extract of E. coli (S30))	also measured
CC(=O)O[C@@H]1[C@@H](O)CN[C@@H]1Cc1ccc(O)cc1 [Analog 17, (2R,3S,4S)-4-hydroxy-2-(4-hydroxybenzyl)-pyrrolidin-3-yl acetate]	6.2 ± 0.45 µM	53.7 ± 6.1 µM	> 200 µM	
COc1ccc(C[C@H]2NC[C@H](O)[C@H]2OC)cc1 [Analog 11, (2R,3S,4S)-3-methoxy-4-hydroxy-2-(4-methoxybenzyl)-pyrrolidine hydrochloride]	70.9 ± 8.3 µM	24 ± 2.5 µM	> 1000 µM	
COc1ccc(C[C@H]2NC[C@H](O)[C@H]2OC(C)=O)cc1 [Analog 1, Anisomycin]	0.1 ± 0.02 µM	0.55 ± 0.03 µM	> 500 µM	effect on E. coli (in words) (extract of E. coli (S30)): no effect
COc1ccc(C[C@H]2NC[C@H](O)[C@H]2O)cc1 [Analog 2, (2R,3S,4S)-3,4-dihydroxy-2-(4-methoxybenzyl)-pyrrolidine]	> 1000 µM	> 100 µM	> 1000 µM	
COc1ccc(C[C@@H]2[C@H](OC(C)=O)[C@@H](O)CN2C)cc1 [Analog 8, (2R,3S,4S)-1-methyl-4-hydroxy-2-(4-methoxybenzyl)-pyrrolidin-3-yl acetate]	25.5 ± 3.6 µM	> 100 µM	> 1000 µM	
CCCCCCCCOc1ccc(C[C@H]2NC[C@H](O)[C@H]2OC(C)=O)cc1 [Analog 22b, (2R,3S,4S)-4-hydroxy-2-(4-octyloxybenzyl)-pyrrolidin-3-yl acetate]	9.5 ± 3.5 µM	33.5 ± 8.2 µM	> 200 µM	IC50 [2, 9]: 1.78 ± 0.58 µM; IC50 [3, 10]: 1.75 ± 0.08 µM; IC50 [4, 11]: 1.11 ± 0.03 µM; IC50 [5, 12]: 1.75 ± 0.12 µM; IC50 [6, 13]: 1.83 ± 0.06 µM
CC(=O)O[C@@H]1[C@@H](O)CN[C@@H]1Cc1ccc(OCc2ccccc2)cc1 [Analog 22c, (2R,3S,4S)-4-hydroxy-2-(4-benzyloxybenzyl)-pyrrolidin-3-yl acetate]	0.9 ± 0.2 µM	7.96 ± 1.02 µM	> 200 µM	
CC(=O)O[C@@H]1[C@@H](O)CN[C@@H]1Cc1cc(CN2CCOCC2)c(O)c(CN2CCOCC2)c1 [Analog 20, (2R,3S,4S)-4-hydroxy-2-[3,5-di-(morpholinomethyl)-4-hydroxybenzyl]-pyrrolidin-3-yl acetate]	> 1000 µM	> 1000 µM	> 1000 µM	activity against L. tarentolae translation / anti-protozoan activity (in words) (L. tarentolae lysate): abolished anti-protozoan activity
COc1ccc(C[C@H]2NC[C@H](O)[C@H]2OC(C)=O)cc1I [Analog 16, (2R,3S,4S)-4-hydroxy-2-(3-iodo-4-methoxybenzyl)-pyrrolidin-3-yl acetate]	73.7 ± 1.7 µM	> 1000 µM	> 1000 µM	activity against L. tarentolae translation / anti-protozoan activity (in words) (L. tarentolae lysate): abolished anti-protozoan activity
CC(=O)O[C@@H]1[C@@H](O)CN[C@@H]1Cc1ccc(OCC(=O)O)cc1 [Analog 22d, (2R,3S,4S)-4-hydroxy-2-(4-carboxymethyloxybenzyl)-pyrrolidin-3-yl acetate]				IC50 [2, 9]: 19.2 ± 1.24 µM; IC50 [3, 10]: 16 ± 1.03 µM; IC50 [4, 11]: 14.9 ± 2.18 µM; IC50 [5, 12]: 16.6 ± 2.23 µM; IC50 [6, 13]: 18.2 ± 2.33 µM
COc1ccc(C[C@H]2NC[C@H](OC)[C@H]2OC)cc1 [Analog 10, (2R,3S,4S)-3,4-dimethoxy-2-(4-methoxybenzyl)-pyrrolidine hydrochloride]	> 1000 µM	> 1000 µM	> 1000 µM	
NC[C@@H]1O[C@H](O[C@H]2[C@@H](O)[C@H](O[C@@H]3[C@@H](O)[C@H](N)C[C@H](N)[C@H]3O[C@H]3O[C@H](CO)[C@@H](O)[C@H](O)[C@H]3N)O[C@@H]2CO)[C@H](N)[C@@H](O)[C@@H]1O [Paromomycin, reference compound]	21 ± 1.1 µM	3.62 ± 0.09 µM	0.051 ± 0.005 µM	
CC(=O)O[C@@H]1[C@@H](O)CN[C@@H]1Cc1ccc(OC(C)C)cc1 [Analog 22a, (2R,3S,4S)-4-hydroxy-2-(4-iso-propoxybenzyl)-pyrrolidin-3-yl acetate]	0.9 ± 0.3 µM	1.13 ± 0.12 µM	> 200 µM	IC50 ([2]; Leishmania infantum, read-out: IC50 Ldi AmB-Res): 0.119 ± 0.0141 µM; IC50 ([3]; Leishmania infantum, read-out: IC50 Ldi Sb-Res): 0.129 ± 0.00316 µM; IC50 ([4]; Leishmania infantum, unit nM, read-out: IC50 Ldi WT): 0.122 ± 0.00562 µM; IC50 ([5]; Leishmania major, unit nM, read-out: IC50 LmF WT): 0.18 ± 0.00469 µM; EC50 [7]: 0.0333 µM; effect on E. coli (in words) (extract of E. coli (S30)): no effect; EC50 [8]: 0.0537 µM; IC50 ([6]; Leishmania infantum, read-out: IC50 Ldi MF-Res): 0.133 ± 0.0078 µM; fold greater selectivity against the different amastigotes relative to host macrophage toxicity (host macrophage (BMDM); MTT survival assay): 5–10 fold; host cell toxicity (in words) (host macrophage (BMDM); host BMDM cells): without host cell toxicity
CC(=O)O[C@@H]1[C@@H](O)CN[C@@H]1Cc1cc(CN(C)C)c(O)c(CN(C)C)c1 [Analog 19, (2R,3S,4S)-4-hydroxy-2-[3,5-di-(dimethylaminomethyl)-4-hydroxybenzyl]-pyrrolidin-3-yl acetate]	70.7 ± 7.3 µM	> 1000 µM	> 200 µM	activity against L. tarentolae translation / anti-protozoan activity (in words) (L. tarentolae lysate): abolished anti-protozoan activity
COc1ccc(C[C@H]2NC[C@H](OC(C)=O)[C@H]2OC(C)=O)cc1 [Analog 9, (2R,3S,4S)-3,4-diacetoxy-2-(4-methoxybenzyl)-pyrrolidine hydrochloride]	25.7 ± 8.5 µM	> 100 µM	> 1000 µM	
Potassium antimonyl tartrate trihydrate [reference compound]				IC50 ([2]; promastigotes, 25 °C, read-out: IC50 (μM) Ldi AmB-Res): 90.2 ± 8.3 µM; IC50 ([3]; promastigotes, 25 °C, read-out: IC50 (μM) Ldi Sb-Res): > 2000 µM; IC50 ([4]; read-out: IC50 (μM) Ldi WT): 75.8 ± 6.13 µM; IC50 ([5]; read-out: IC50 (μM) LmF WT): 25 ± 1.13 µM; IC50 ([6]; promastigotes, 25 °C, read-out: IC50 (μM) Ldi MF-Res): 85.3 ± 7.1 µM
CCCCCCCCCCCCCCCCOP(=O)([O-])OCC[N+](C)(C)C [Miltefosine, reference compound]				IC50 [2, 9]: 30.3 ± 4.28 µM; IC50 [3, 10]: 8.21 ± 0.53 µM; IC50 [4, 11]: 7.16 ± 0.21 µM; IC50 [5, 12]: 8.47 ± 1.18 µM; IC50 [6, 13]: > 200 µM

— article PMC10526209, “Systematic Exploration of Functional Group Relevance for Anti-Leishmanial Activity of Anisomycin” (Biomedicines, 2023)
